pIC50: −log10 of the molar value. Values joined by “and” are separate entries in the source; they are usually repeats but may differ in a detail not shown here. Equal entries are not always repeated.

The first test concerns plasma cytokines in C57/bl6 mice. Nature of the test: In vivo assay for suppression of IL-17 (MOG/CFA/PTX immunisation). To be noted: 2×10 mg/(kg×day) i.p., MOG peptide+CFA+PTX immunised mice. Set-up: species or system mouse. The source says:
All animal models that mimic human autoimmune disease suffer from the issue that they are long lasting, require substantial amounts of exploratory drugs and do mostly not allow for monitoring IL-17 production in a simple setup. We therefore developed an in vivo assay based on an immunisation protocol that stems from a typical mouse Experimental Autoimmune Encephalomyelitis (EAE) model. Such EAE models employ the administration of certain autoimmunogenic peptides derived from i.e. Myelin Oligodendrocyte Glycoprotein (MOG) in conjunction with co-administration of a strong immune stimulants such as Complete Freund's Adjuvans (CFA) and a booster for T-cell activation such as Pertussis Toxin (PTX) to induce an autoimmune response. IL-17 producing Th17 cells are elevated under these conditions and about 14-21 days after the immunisation macroscopic signs of CNS inflammation such as impairment of movement become visible.
This immunisation scheme, while disturbing the regular development of macroscopic EAE symptoms in mice, allows for the monitoring of proinflammatory cytokines in plasma, specifically for IL-17, IL-2 and Interferon gamma IFNγ. […]
For the compound `O=S(=O)(c1cccc2cccnc12)N1Cc2ccccc2COCC1Cc1ccccc1` (centres unmarked) [1/8], the “plasma IFNγ levels (FIG. 1)” value is recorded as “increase” and the “plasma IL-17 levels (FIG. 1)” value is “nearly completely reduced”.

In another test the target is T1, RORγ ligand binding domain (LBD) (Homo sapiens, UniProt P51449).
T1 construct: made in house; host or cells: E. coli BL-21 (BL3), vector pDEST15
T1 sequence (P51449 269-508 limits assumed): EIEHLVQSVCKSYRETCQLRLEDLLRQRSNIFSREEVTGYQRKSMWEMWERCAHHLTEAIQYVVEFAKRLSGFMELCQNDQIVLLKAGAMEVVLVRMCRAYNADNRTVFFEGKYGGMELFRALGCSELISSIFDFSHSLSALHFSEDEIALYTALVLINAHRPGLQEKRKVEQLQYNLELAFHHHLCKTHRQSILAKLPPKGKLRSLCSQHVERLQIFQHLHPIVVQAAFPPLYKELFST
Nature of the test: TR-FRET Activity Assay (RORγ-LBD / coactivator peptide interaction). To be noted: Table 2; read-out: RORγ activity in the TR-FRET Activity Assay (IC50 FRET), Group. Type of test: biochemical. The source says:
This method measures the ability of putative ligands to modulate the interaction between the purified bacterial expressed RORγ ligand binding domain (LBD) and synthetic N-terminally biotinylated peptides which are derived from nuclear receptor coactivator proteins such as but not limited to SRC1 (NcoA1), SRC2 (NcoA2, TIF2), SRC3 (NcoA3), PGC1α, PGC1β, CBP, GRIP1, TRAP220, RIP140.
The ligand-binding domain (LBD) of RORγ was expressed as fusion protein with GST in […] cells using the vector pDEST15. Cells were lysed by lysozyme-treatment and sonication, and the fusion proteins purified over glutathione sepharose (Pharmacia) according to the manufacturers instructions. For screening of compounds for their influence on the RORγ-peptide interaction, the LANCE technology (Perkin Elmer) was applied. This method relies on the binding dependent energy transfer from a donor to an acceptor fluorophor attached to the binding partner of interest. For ease of handling and reduction of background from compound fluorescence LANCE technology makes use of generic fluorophore labels and time resolved detection assays were done in a final volume of 25 μL in a 384 well plate, in a Tris-based buffer system (20 mM Tris-HCl pH6.8; 60 mM KCl, 1 mM DTT; 5 mM MgCl2; 35 ng/μL BSA), containing 20-60 ng/well recombinantly expressed RORγ-LBD fused to GST, 200-600 nM N-terminally biotinylated peptide, 200 ng/well Streptavidin-xIAPC conjugate (Prozyme) and 6-10 ng/well Eu W1024—antiGST (Perkin Elmer). DMSO content of the samples was kept at 1%.
After generation of the Tris-based buffer system, the potentially RORγ modulating ligands were diluted. […] The LANCE signal was detected by a Perkin Elmer EnVision™ Multilabel Counter. The results were visualized by plotting the ratio between the emitted light at 665 nm and 615 nm. […] Ligands that promote the complex formation induce a concentration-dependent increase in time-resolved fluorescent signal.
To assess the antagonistic potential of the compounds, IC50 values were determined using a Ligand Sensing Assay based on Time-resolved Fluorescence Energy Transfer (TR-FRET) as described above. The normalised TR-FRET assay values, using the following equation: 1000*665 nm measurement value/615 nm measurement value, were transferred to the program GraphPad Prism to generate graphs and dose response curves using the following equation: • Equation: Sigmoidal dose-response (variable slope) Y=Bottom+(Top−Bottom)/(1+10^((Log EC50−X)*HillSlope))
This is identical to the “four parameter logistic equation”. The IC50 values are calculated using this equation.
(In general: Time-resolved FRET reads energy transfer from a long-lived donor to a nearby acceptor.)
The pIC50 is the negative decadic logarithm of the IC50, by convention in mol/L. As for `O=S(=O)(c1cccc2cccnc12)N1Cc2ccccc2COC[C@H]1COCC1CC1` [16/4], the pIC50 is 5.70 to 6.30.

With `O=S(=O)(c1cccc2cccnc12)N1Cc2ccccc2COC[C@H]1COCC1CCC1` [16/3], the pIC50 was 5.70 to 6.30.

Regarding `COc1ccccc1S(=O)(=O)N1Cc2ccccc2COCC1Cc1ccccc1` (centres unmarked) [Preparative Example 1, 4-Benzyl-5-(2-methoxyphenylsulfonyl)-3,4,5,6-tetrahydro-1H-benzo[f][1,4]-oxazocine], the negative logarithm of the IC50 (pIC50) is more than 6.30.

On to `O=S(=O)(c1cccc2cccnc12)N1Cc2ccccc2COCC1Cc1ccccc1` (centres unmarked) [1/8], for which the negative-log IC50 (pIC50) was more than 6.30.

With `O=S(=O)(c1cccc2cccnc12)N1Cc2ccccc2COCC1CC1CCCC1` (centres unmarked) [1/44], the pIC50 is more than 6.30.

With `COc1cccc(S(=O)(=O)N2Cc3ccccc3COCC2Cc2ccccc2)c1` (centres unmarked) [1/28], the pIC50 is 5.70 to 6.30.

With `COc1ccccc1S(=O)(=O)N1Cc2ccccc2COCC1Cc1ccc(Br)cc1` (centres unmarked) [compound 3], the negative logarithm of the IC50 (pIC50) was less than 5.70.

`COc1ccccc1S(=O)(=O)N1Cc2ccccc2COC[C@H]1Cc1ccccc1` [1/2]: the negative logarithm of the IC50 (pIC50) is > 6.30 and < 5.70.

Turning to `COc1ccccc1S(=O)(=O)N1Cc2ccccc2COCC1Cc1cccc(Br)c1` (centres unmarked) [3/2], the pIC50 is more than 6.30.

On to `Cc1nn(C)c(Cl)c1S(=O)(=O)N1Cc2ccccc2COCC1Cc1ccccc1` (centres unmarked) [1/32], for which the negative-log IC50 (pIC50) was less than 5.70.

Regarding `O=S(=O)(c1c(Cl)cccc1Cl)N1Cc2ccccc2COCC1Cc1ccccc1` (centres unmarked) [1/23], the negative logarithm of the IC50 (pIC50) was 5.70 to 6.30.

Turning to `COc1ccccc1S(=O)(=O)N1Cc2c(cccc2OC)COCC1Cc1ccccc1` (centres unmarked) [5/1], the pIC50 was less than 5.70.

With `COc1ccccc1S(=O)(=O)N1Cc2c(Br)cccc2COCC1Cc1ccccc1` (centres unmarked) [3/1], the pIC50 was less than 5.70.

Regarding `CC(C)(C)OC[C@@H]1COCc2ncccc2CN1S(=O)(=O)c1cccc2cccnc12` [6/1], the negative-log IC50 (pIC50) is less than 5.70.

With `O=S(=O)(c1cccc2cccnc12)N1Cc2ccccc2COC[C@H]1Cc1cccnc1` [compound 7], the negative-log IC50 (pIC50) is 5.70 to 6.30.

For the compound `COc1ccccc1S(=O)(=O)N1Cc2ccccc2COCC1Cc1ccc(F)cc1` (centres unmarked) [1/37], the negative-log IC50 (pIC50) is 5.70 to 6.30.

`O=S(=O)(c1ccccc1OC(F)(F)F)N1Cc2nccn2CCC[C@H]1Cc1ccccc1` [31/2]: the pIC50 is 5.70 to 6.30.

`O=S(=O)(c1ccccc1C(F)(F)F)N1Cc2ccccc2COCC1Cc1ccccc1` (centres unmarked) [1/25]: the pIC50 is 5.70 to 6.30.

As to `O=S(=O)(c1cccc2c1OCC2)N1Cc2ccccc2COCC1Cc1ccccc1` (centres unmarked) [1/9], the pIC50 is more than 6.30.

As to `COCCOC[C@@H]1COCc2ccccc2CN1S(=O)(=O)c1cccc2cccnc12` [16/2], the negative-log IC50 (pIC50) is less than 5.70.

On to `O=S(=O)(c1c(F)cccc1F)N1Cc2ccccc2COCC1Cc1ccccc1` (centres unmarked) [1/22], for which the pIC50 was more than 6.30.

Consider `CN(C)C(=O)C[C@@H]1COCc2ccccc2CN1S(=O)(=O)c1cccc2cccnc12` [Preparative Example 26, (R)—N,N-Dimethyl-2-(5-(quinolin-8-ylsulfonyl)-3,4,5,6-tetrahydro-1H-benzo[f][1,4]oxazocin-4-yl)acetamide], for which the pIC50 was less than 5.70.

Regarding `COc1cccc(CC2COCc3ccccc3CN2S(=O)(=O)c2cccc3cccnc23)c1` (centres unmarked) [1/38], the pIC50 is more than 6.30.

`COc1cccc(-c2cccc(CC3COCc4ccccc4CN3S(=O)(=O)c3ccccc3OC)c2)n1` (centres unmarked) [5/6]: the pIC50 is less than 5.70.

As for `COc1ccc2c(c1)CN(S(=O)(=O)c1ccccc1OC)C(Cc1ccccc1)COC2` (centres unmarked) [1/34], the pIC50 was less than 5.70.

On to `O=S(=O)(c1cc(Cl)ccc1F)N1Cc2ccccc2COCC1Cc1ccccc1` (centres unmarked) [1/18], for which the negative-log IC50 (pIC50) was more than 6.30.

A further test deals with activated human PBMCs. The experiment in a line: PBMC stimulation and cytokine release assay. In kind it is cell-based.
Conditions: not given
The procedure: Cryopreserved human PBMCs were purchased from Cellular Technology Ltd. thawed and counted as outlined in the supplier's protocol using CTL-anti-Aggregate-Wash-Supplement. Cells were washed and plated in CTL's serum free medium to −10^5 cells/well in anti-human CD3 coated 96 well T-cell activation plates (BD; Cat. No: 354725) together with anti-human CD28 antibody (BD; Cat. No: 555725) to a final concentration of 2 μg/mL. Samples were either treated with vehicle (0.1%) or small chemical molecules of the indicated concentrations.
For end point determination of cytokine production the cells were incubated for 72 h at 37° C. and 5% CO2. Supernatants were harvested and stored frozen at −80° C. until further processing. The cells were assayed for viability by incubation for 15 min with fluoresceindiacetate (5 μg/mL in PBS) and subsequent measurement of fluorescein (485 nm/535 nm).
Cytokine concentrations in the supernatants were determined in bead-based multiplex ELISA assays using Procarta Cytokine Assay Kits (Panomics) following the manufacturers instructions. The samples were read in a Luminex100 device and analysed with the IS Luminex 2.3 Software using a 5 parameter non-linear regression curve-fitting model.
Regarding `O=S(=O)(c1cccc2cccnc12)N1Cc2ccccc2COC[C@H]1COCC1CC1` [16/4], the “effects on Th17-cytokine production in activated human PBMCs (FIG. 2)” value (“effects on Th17-cytokine production” for short) was “selective inhibitory effects”.

As to `O=S(=O)(c1cccc2cccnc12)N1Cc2ccccc2COC[C@H]1COCC1CCC1` [16/3], the “effects on Th17-cytokine production” value was “selective inhibitory effects”.

Turning to `COc1ccccc1S(=O)(=O)N1Cc2ccccc2COCC1Cc1ccccc1` (centres unmarked) [Preparative Example 1, 4-Benzyl-5-(2-methoxyphenylsulfonyl)-3,4,5,6-tetrahydro-1H-benzo[f][1,4]-oxazocine], the “effects on Th17-cytokine production” value is given as “selective inhibitory effects”.

As to `O=S(=O)(c1cccc2cccnc12)N1Cc2ccccc2COCC1CC1CCCC1` (centres unmarked) [1/44], the “effects on Th17-cytokine production” value is given as “selective inhibitory effects”.

For the origin of these results see patent US8940722B2, “Compounds for modulation of orphan nuclear receptor RAR-related orphan receptor-gamma (RORγ, NR1F3) activity and for the treatment of chronic inflammatory and autoimmune disease” (Phenex Pharmaceuticals AG, priority 2010, dated 2015).
